Data taken from patent publication US20260001928A1 (CORTERIA PHARMACEUTICALS, priority 2022, published 2026).
*1 amine or outer side, *2 acyl side, *3 side chain or, on linkers, in order; H or OH if unused. Where a SMILES comes first, the peptide text is derived from it. Side-chain parts run from the residue outwards. [ ]: non-standard residue; d: D form. The star is where a group is joined. C20 diacid = O=C(O)CCCCCCCCCCCCCCCCCCC(=O)*; γGlu = O=C(O)[C@H](CCC(=O)[*:2])N[*:1]; Myristoyl = CCCCCCCCCCCCCC(=O)*; Lauroyl = CCCCCCCCCCCC(=O)*; Api = NC1(C(=O)O)CCNCC1; Pentanoyl = CCCCC(=O)*; Aib = CC(C)(N)C(=O)O

Legend:
human CRF2a receptor = biological target: T1, human CRF2a receptor (Homo sapiens, UniProt Q13324); test: Activity at human CRF2a receptor, cAMP functional assay in TeloHEAC cells; assay type: cell-based; details: TeloHEAC cells stably expressing human CRF2a receptor, relative to urocortin 2 (100 nM = 100%)
T1 construct: expressed in transfected cells; host or cells: TeloHEAC cells
T1 sequence (Q13324 1-411): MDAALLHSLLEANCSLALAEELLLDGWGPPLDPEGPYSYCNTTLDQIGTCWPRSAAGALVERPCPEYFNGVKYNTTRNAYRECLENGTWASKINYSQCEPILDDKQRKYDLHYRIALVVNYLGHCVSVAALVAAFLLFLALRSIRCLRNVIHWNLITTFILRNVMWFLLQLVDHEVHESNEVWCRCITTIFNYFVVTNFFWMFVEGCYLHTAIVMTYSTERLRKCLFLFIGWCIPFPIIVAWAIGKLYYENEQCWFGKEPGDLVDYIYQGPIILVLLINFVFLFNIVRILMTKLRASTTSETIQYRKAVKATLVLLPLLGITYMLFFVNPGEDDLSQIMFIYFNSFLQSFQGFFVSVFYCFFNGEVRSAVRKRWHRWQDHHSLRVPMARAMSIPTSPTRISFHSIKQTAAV
Procedure, shortened: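 TeloHEAC cells stably expressing human CRF2a (10000 cells/well) were treated with 16-point 1:2 compound dilutions in HBSS/20 mM HEPES with IBMX for 30 min at 37° C. cAMP was read by HTRF (665/620 nm ratio). EC50 was the concentration giving 50% activation, with 100 nM urocortin 2 set as 100%.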

CFR1R receptor = biological target: T2, CFR1R receptor (Homo sapiens, UniProt P34998); test: Activity at anti-target CFR1R receptor, cAMP assay in CRF1R-overexpression CHO-K1 cells; assay type: cell-based; details: 100% = Sauvagine at 100 nM
T2 construct: host or cells: CHO-K1 (clone 2)
T2 sequence (P34998 24-415): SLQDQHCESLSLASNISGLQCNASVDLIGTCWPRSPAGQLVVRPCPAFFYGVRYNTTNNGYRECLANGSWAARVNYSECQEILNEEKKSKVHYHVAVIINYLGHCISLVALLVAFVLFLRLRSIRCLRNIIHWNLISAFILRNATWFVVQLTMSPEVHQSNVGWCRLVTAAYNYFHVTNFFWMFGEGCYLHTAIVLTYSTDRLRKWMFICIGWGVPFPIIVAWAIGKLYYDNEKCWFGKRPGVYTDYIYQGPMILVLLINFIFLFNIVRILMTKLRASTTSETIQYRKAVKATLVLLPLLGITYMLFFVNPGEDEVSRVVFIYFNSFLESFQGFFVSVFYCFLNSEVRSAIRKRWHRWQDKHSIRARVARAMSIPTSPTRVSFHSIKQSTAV
Procedure, shortened: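 Grow clone 2 to near confluence at 37° C. under 5% CO2 in F12 (Hams) with 10% FBS and G418, harvest, and freeze in 10% DMSO. Thaw and plate at 4000 cells/well. Then proceed per the TeloHAEC method, normalising to Sauvagine 100 nM as maximum.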

EC50 (human CRF2a receptor) [nM] | Emax (% I) (CFR1R receptor) | EC50 (CFR1R receptor; cAMP) [nM] | SMILES
0.18 | 82 | 42.2 | CC[C@H](C)[C@H](NC(C)=O)C(=O)N[C@H](C(=O)N[C@@H](CC(C)C)C(=O)N[C@@H](CO)C(=O)N[C@@H](CC(C)C)C(=O)N[C@@H](CC(=O)O)C(=O)N[C@@H](C(=O)N1CCC[C@H]1C(=O)N[C@H](C(=O)NCC(=O)N[C@@H](CC(C)C)C(=O)N[C@@H](CCCCNC(=O)CC[C@H](NC(=O)CCCCCCCCCCCCCCCCCCC(=O)O)C(=O)O)C(=O)N[C@@H](CCCCN)C(=O)N[C@H](C(=O)N[C@@H](CC(C)C)C(=O)N[C@@H](CC(C)C)C(=O)N[C@@H](CCC(=O)O)C(=O)N[C@@H](CCC(N)=O)C(=O)N[C@@H](CCC(=O)O)C(=O)N[C@@H](CCCCN)C(=O)N[C@@H](CCC(N)=O)C(=O)N[C@@H](CCCCN)C(=O)N[C@@H](CCCCN)C(=O)N[C@@H](CCC(N)=O)C(=O)N[C@@H](CCCNC(=N)N)C(=O)N[C@@H](CCC(=O)O)C(=O)N[C@@H](CCC(N)=O)C(=O)N[C@@H](C)C(=O)N[C@@H](CCC(=O)O)C(=O)N[C@H](C(=O)N[C@@H](CC(N)=O)C(=O)NC(C)(C)C(=O)N[C@@H](CCC(N)=O)C(=O)N[C@H](C(=O)N[C@@H](CC(C)C)C(=O)N[C@@H](C)C(=O)N[C@@H](CCC(N)=O)C(=O)N[C@H](C(N)=O)C(C)C)[C@@H](C)CC)[C@@H](C)O)[C@@H](C)CC)[C@@H](C)CC)C(C)C)C(C)C [compound 226] (Ac-IVLSLD[dV]PIGLK([γGlu-C20 diacid])KILLEQEKQKKQREQAETN[Aib]QILAQV-NH2)
0.2 | 97 |  | CC[C@H](C)[C@H](NC(C)=O)C(=O)N[C@H](C(=O)N[C@@H](CC(C)C)C(=O)N[C@@H](CO)C(=O)N[C@@H](CC(C)C)C(=O)N[C@@H](CC(=O)O)C(=O)N[C@@H](C(=O)N1CCC[C@H]1C(=O)N[C@H](C(=O)NCC(=O)N[C@@H](CC(C)C)C(=O)N[C@@H](CCCCNC(=O)CC[C@H](NC(=O)CCCCCCCCCCCCCCCCCCC(=O)O)C(=O)O)C(=O)N[C@@H](CCCCN)C(=O)N[C@H](C(=O)N[C@@H](CC(C)C)C(=O)N[C@@H](CC(C)C)C(=O)N[C@@H](CCC(=O)O)C(=O)N[C@@H](CCC(N)=O)C(=O)N[C@@H](CCC(=O)O)C(=O)N[C@@H](CCCCN)C(=O)N[C@@H](CCC(N)=O)C(=O)N[C@@H](CCCCN)C(=O)N[C@@H](CCCCN)C(=O)N[C@@H](CCC(N)=O)C(=O)N[C@@H](CCCNC(=N)N)C(=O)N[C@@H](CCC(=O)O)C(=O)N[C@@H](CCC(N)=O)C(=O)N[C@@H](C)C(=O)N[C@@H](CCC(=O)O)C(=O)N[C@H](C(=O)N[C@@H](CC(N)=O)C(=O)NC1(C(=O)N[C@@H](CCC(N)=O)C(=O)N[C@H](C(=O)N[C@@H](CC(C)C)C(=O)N[C@@H](C)C(=O)N[C@@H](CCC(N)=O)C(=O)N[C@H](C(N)=O)C(C)C)[C@@H](C)CC)CCNCC1)[C@@H](C)O)[C@@H](C)CC)[C@@H](C)CC)C(C)C)C(C)C [compound 227] (Ac-IVLSLD[dV]PIGLK([γGlu-C20 diacid])KILLEQEKQKKQREQAETN[Api]QILAQV-NH2)

Second part, the compound before the results:

SMILES | EC50 (human CRF2a receptor) [nM] | Emax (% I) (CFR1R receptor) | EC50 (CFR1R receptor; cAMP) [nM]
CCCCC(=O)N[C@H](C(=O)N[C@@H](CC(C)C)C(=O)N[C@@H](CO)C(=O)N[C@@H](CC(C)C)C(=O)N[C@@H](CC(=O)O)C(=O)N[C@@H](C(=O)N1CCC[C@H]1C(=O)N[C@H](C(=O)N[C@@H](CCCCN)C(=O)N[C@@H](CC(C)C)C(=O)N[C@@H](CCCCNC(=O)CC[C@H](NC(=O)CCCCCCCCCCCCCCCCCCC(=O)O)C(=O)O)C(=O)N[C@@H](CCCCN)C(=O)N[C@H](C(=O)N[C@@H](CC(C)C)C(=O)N[C@@H](CC(C)C)C(=O)N[C@@H](CCC(=O)O)C(=O)N[C@@H](CCC(N)=O)C(=O)N[C@@H](CCC(=O)O)C(=O)N[C@@H](C)C(=O)N[C@@H](CCC(N)=O)C(=O)N[C@@H](CCCCN)C(=O)N[C@@H](CCCCN)C(=O)N[C@@H](CCC(N)=O)C(=O)N[C@@H](CCCNC(=N)N)C(=O)N[C@@H](CCC(=O)O)C(=O)N[C@@H](CCC(N)=O)C(=O)N[C@@H](C)C(=O)N[C@@H](CCC(=O)O)C(=O)N[C@H](C(=O)N[C@@H](CC(N)=O)C(=O)NC(C)(C)C(=O)N[C@@H](CCC(N)=O)C(=O)N[C@H](C(=O)N[C@@H](CC(C)C)C(=O)N[C@@H](C)C(=O)N[C@@H](CCC(N)=O)C(=O)N[C@H](C(N)=O)C(C)C)[C@@H](C)CC)[C@@H](C)O)[C@@H](C)CC)[C@@H](C)CC)C(C)C)C(C)C [compound 221] (Pentanoyl-VLSLD[dV]PIKLK([γGlu-C20 diacid])KILLEQEAQKKQREQAETN[Aib]QILAQV-NH2) | 0.18 | 79 | 
CCCCCCCCCCCC(=O)N[C@H](C(=O)N[C@@H](CC(C)C)C(=O)N[C@@H](CO)C(=O)N[C@@H](CC(C)C)C(=O)N[C@@H](CC(=O)O)C(=O)N[C@@H](C(=O)N1CCC[C@H]1C(=O)N[C@H](C(=O)N[C@@H](CCCCN)C(=O)N[C@@H](CC(C)C)C(=O)N[C@@H](CCCCNC(=O)CC[C@H](NC(=O)CCCCCCCCCCCCCCCCCCC(=O)O)C(=O)O)C(=O)N[C@@H](CCCCN)C(=O)N[C@H](C(=O)N[C@@H](CC(C)C)C(=O)N[C@@H](CC(C)C)C(=O)N[C@@H](CCC(=O)O)C(=O)N[C@@H](CCC(N)=O)C(=O)N[C@@H](CCC(=O)O)C(=O)N[C@@H](CCCCN)C(=O)N[C@@H](CCC(N)=O)C(=O)N[C@@H](CCCCN)C(=O)N[C@@H](CCCCN)C(=O)N[C@@H](CCC(N)=O)C(=O)N[C@@H](CCCNC(=N)N)C(=O)N[C@@H](CCC(=O)O)C(=O)N[C@@H](CCC(N)=O)C(=O)N[C@@H](C)C(=O)N[C@@H](CCC(=O)O)C(=O)N[C@H](C(=O)N[C@@H](CC(N)=O)C(=O)NC(C)(C)C(=O)N[C@@H](CCC(N)=O)C(=O)N[C@H](C(=O)N[C@@H](CC(C)C)C(=O)N[C@@H](C)C(=O)N[C@@H](CCC(N)=O)C(=O)N[C@H](C(N)=O)C(C)C)[C@@H](C)CC)[C@@H](C)O)[C@@H](C)CC)[C@@H](C)CC)C(C)C)C(C)C [compound 224] (Lauroyl-VLSLD[dV]PIKLK([γGlu-C20 diacid])KILLEQEKQKKQREQAETN[Aib]QILAQV-NH2) | 0.07 | 66 | 
CCCCCCCCCCCCCC(=O)N[C@H](C(=O)N[C@@H](CC(C)C)C(=O)N[C@@H](CO)C(=O)N[C@@H](CC(C)C)C(=O)N[C@@H](CC(=O)O)C(=O)N[C@@H](C(=O)N1CCC[C@H]1C(=O)N[C@H](C(=O)N[C@@H](CCCCN)C(=O)N[C@@H](CC(C)C)C(=O)N[C@@H](CCCCNC(=O)CC[C@H](NC(=O)CCCCCCCCCCCCCCCCCCC(=O)O)C(=O)O)C(=O)N[C@@H](CCCCN)C(=O)N[C@H](C(=O)N[C@@H](CC(C)C)C(=O)N[C@@H](CC(C)C)C(=O)N[C@@H](CCC(=O)O)C(=O)N[C@@H](CCC(N)=O)C(=O)N[C@@H](CCC(=O)O)C(=O)N[C@@H](CCCCN)C(=O)N[C@@H](CCC(N)=O)C(=O)N[C@@H](CCCCN)C(=O)N[C@@H](CCCCN)C(=O)N[C@@H](CCC(N)=O)C(=O)N[C@@H](CCCNC(=N)N)C(=O)N[C@@H](CCC(=O)O)C(=O)N[C@@H](CCC(N)=O)C(=O)N[C@@H](C)C(=O)N[C@@H](CCC(=O)O)C(=O)N[C@H](C(=O)N[C@@H](CC(N)=O)C(=O)NC(C)(C)C(=O)N[C@@H](CCC(N)=O)C(=O)N[C@H](C(=O)N[C@@H](CC(C)C)C(=O)N[C@@H](C)C(=O)N[C@@H](CCC(N)=O)C(=O)N[C@H](C(N)=O)C(C)C)[C@@H](C)CC)[C@@H](C)O)[C@@H](C)CC)[C@@H](C)CC)C(C)C)C(C)C [compound 225] (Myristoyl-VLSLD[dV]PIKLK([γGlu-C20 diacid])KILLEQEKQKKQREQAETN[Aib]QILAQV-NH2) | 0.09 | 70 | 
